Experimental data taken from PubChem BioAssay AID743181 (NMMLSC, 2013).
Active and inactive are the calls of the source.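 Rule for the calls: active = at least 15% GFP+ cells at the top dose together with an EC50 below 10 µM; inactive = the rest.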

Test system: not listed separately
Experiment: differentiation promoters in HOXA9-arrested myeloid cells, SAR follow-up, HOXA9-ER marrow cells, GFP flow, set 1 (AID 743181)
Conditions: HOXA9-ER marrow cells, lysozyme-GFP differentiation, flow; at 10 µM (top of the series)

Q: With `O=C(CCCNC(=O)c1ccc(OC(F)(F)F)cc1)N[C@@H]1CCCc2ccccc21` as the compound, how does the GFP+ cells, differentiation read?
A: 1% (inactive)

Q: With `COc1ccccc1C(C)NC(=O)CCNC(=O)c1ccc(Cl)cc1` (stereo not given) as the compound, how does the GFP+ cells, differentiation read?
A: 0% (inactive)

Q: With `CC(NC(=O)CCNC(=O)c1ccc(Cl)cc1)c1ccc2c(c1)OCO2` (stereo not given) as the compound, how does the GFP+ cells, differentiation read?
A: 0% (inactive)

Q: With `O=C(NC1CCc2ccccc21)C1CCCN(C(=O)c2ccc(Cl)cc2)C1` (stereo not given) as the compound, how does the GFP+ cells, differentiation read?
A: 1% (inactive)

Q: With `O=C(CCCNC(=O)c1ccc(Cl)cc1)N[C@@H]1CCCc2ccccc21` as the compound, how does the GFP+ cells, differentiation read?
A: 2% (inactive)

Q: For `O=C(NC1CCOc2ccccc21)C1CCCN(C(=O)c2ccc(Cl)cc2)C1` (stereo not given), which GFP+ cells, differentiation is on record?
A: 1% (inactive)

Q: For `O=C(CCNC(=O)c1ccccc1)N[C@@H]1CCCc2ccccc21`, which GFP+ cells, differentiation is on record?
A: 3% (inactive)

Q: Which GFP+ cells, differentiation does the source give for `O=C(CCNC(=O)c1ccc(Cl)cc1)N[C@H]1CCCc2ccccc21` here?
A: 1% (inactive)

Q: With `Cc1cccc(C(=O)NCCC(=O)NC2CCCc3ccccc32)c1` (stereo not given) as the compound, how does the GFP+ cells, differentiation read?
A: 1% (inactive)

Q: For `CC(C)(C)OC(=O)NCCC(=O)N[C@H]1CCCc2ccccc21`, which GFP+ cells, differentiation is on record?
A: 1% (inactive)

Q: For `O=C(CNC(=O)c1ccc(OC(F)(F)F)cc1)N[C@@H]1CCCc2ccccc21`, which GFP+ cells, differentiation is on record?
A: 1% (inactive)

Q: For `O=C(CCNC(=O)c1ccc(F)cc1)N[C@@H]1CCCc2ccccc21`, which GFP+ cells, differentiation is on record?
A: 12% (inactive)

Q: Which GFP+ cells, differentiation does the source give for `CC(NC(=O)CCNC(=O)c1ccc(Cl)cc1)c1ccc(F)cc1` (stereo not given) here?
A: 1% (inactive)

Q: For `O=C(CNC(=O)c1ccc(Cl)cc1)N[C@@H]1CCCc2ccccc21`, which GFP+ cells, differentiation is on record?
A: 4% (inactive)

Q: With `Cc1ccc(C)c(OCCn2cc(C(=O)O)c3ccccc32)c1` as the compound, how does the GFP+ cells, differentiation read?
A: 0% (inactive)

Q: For `O=C(CCCNC(=O)c1ccc(C(F)(F)F)cc1)N[C@@H]1CCCc2ccccc21`, which GFP+ cells, differentiation is on record?
A: 1% (inactive)

Q: With `CC(C)(C)OC(=O)NCCC(=O)N[C@@H]1CCCc2ccccc21` as the compound, how does the GFP+ cells, differentiation read?
A: 1% (inactive)

Q: Which GFP+ cells, differentiation does the source give for `O=C(O)c1ccccc1OCc1ccccc1Br` here?
A: 1% (inactive)

Q: Which GFP+ cells, differentiation does the source give for `O=C(Cc1ccc(Cl)cc1)NCCC(=O)N[C@@H]1CCCc2ccccc21` here?
A: 16% (inactive)

Q: For `NCCC(=O)N[C@@H]1CCCc2ccccc21`, which GFP+ cells, differentiation is on record?
A: 1% (inactive)

Q: Which GFP+ cells, differentiation does the source give for `O=C(CNC(=O)c1ccc(Cl)c(Cl)c1)N[C@@H]1CCCc2ccccc21` here?
A: 2% (inactive)

Q: With `O=C(CCCNC(=O)c1ccc(Cl)c(Cl)c1)N[C@@H]1CCCc2ccccc21` as the compound, how does the GFP+ cells, differentiation read?
A: 1% (inactive)

Q: For `O=C(CNC(=O)c1ccc(C(F)(F)F)cc1)N[C@@H]1CCCc2ccccc21`, which GFP+ cells, differentiation is on record?
A: 1% (inactive)

Q: With `CC(=O)NCCC(=O)N[C@@H]1CCCc2ccccc21` as the compound, how does the GFP+ cells, differentiation read?
A: 0% (inactive)

Q: Which GFP+ cells, differentiation does the source give for `N#Cc1ccc(C(=O)NCCC(=O)N[C@@H]2CCCc3ccccc32)cc1` here?
A: 16% (inactive)

Q: Which GFP+ cells, differentiation does the source give for `O=C(CCNC(=O)c1ccc(Cl)cc1)NC1CCCCC1` here?
A: 1% (inactive)

Q: Which GFP+ cells, differentiation does the source give for `CC(NC(=O)C1CCCN(C(=O)c2ccc(Cl)cc2)C1)c1ccccc1` (stereo not given) here?
A: 0% (inactive)

Q: Which GFP+ cells, differentiation does the source give for `CC(c1ccccc1)N(C)C(=O)CCNC(=O)c1ccc(Cl)cc1` (stereo not given) here?
A: 0% (inactive)

Q: Which GFP+ cells, differentiation does the source give for `C[C@@H](NC(=O)CCNC(=O)c1ccc(Cl)cc1)c1ccccc1` here?
A: 1% (inactive)

Test system: HOXA9-ER marrow cells, lysozyme-GFP differentiation, flow
Experiment: as above
Conditions: not given

Q: With `O=C(CCNC(=O)c1ccc(Cl)c(Cl)c1)N[C@@H]1CCCc2ccccc21` as the compound, how does the EC50 read?
A: 3.24 µM

Q: Which EC50 does the source give for `O=C(CCNC(=O)c1cccc(Cl)c1)N[C@@H]1CCCc2ccccc21` here?
A: 5.42 µM

Q: For `O=C(O)c1cccnc1Nc1ccc(Cl)cc1`, which EC50 is on record?
A: 5.4 µM

Q: For `O=C(CCNC(=O)c1ccc(C(F)(F)F)cc1)N[C@@H]1CCCc2ccccc21`, which EC50 is on record?
A: 2.63 µM

Q: For `O=C(CCNC(=O)c1ccc(Cl)cc1)N[C@@H]1CCCc2ccccc21`, which EC50 is on record?
A: 3.47 µM

Q: For `Cc1ccc(C(=O)NCCC(=O)N[C@@H]2CCCc3ccccc32)cc1`, which EC50 is on record?
A: 8.68 µM

Q: For `COc1ccc(C(=O)NCCC(=O)N[C@@H]2CCCc3ccccc32)cc1`, which EC50 is on record?
A: 4.95 µM

Q: With `O=C(CCNC(=O)c1ccc(OC(F)(F)F)cc1)N[C@@H]1CCCc2ccccc21` as the compound, how does the EC50 read?
A: 1.61 µM

Q: With `O=C(CCNC(=O)c1ccc(Cl)cc1)N[C@@H]1CCc2ccccc21` as the compound, how does the EC50 read?
A: 9.97 µM

Q: For `O=C(CCNC(=O)c1ccc2c(c1)OC(F)(F)O2)N[C@@H]1CCCc2ccccc21`, which EC50 is on record?
A: 4.69 µM

Q: Which EC50 does the source give for `O=C(CCNC(=O)c1ccc(Cl)cc1)NC1CCCc2ccccc21` (stereo not given) here?
A: 5.06 µM
